According to ChEMBL document CHEMBL5214920, “Emerging impact of triazoles as anti-tubercular agent” (Eur J Med Chem, 2022):
≈ marks a conversion by molar mass, not a printed value.

What was measured:
Assay type in all cases: functional
[1] = test system: Mycobacterium tuberculosis; experiment: Antitubercular activity against Mycobacterium tuberculosis H37Rv assessed as bacterial growth inhibition measured after 7 days by direct susceptibility assay; details: 168 h, time 7 day
[2] = test system: Mycobacterium tuberculosis; experiment: Antitubercular activity against Mycobacterium tuberculosis H37Rv assessed as bacterial growth inhibition by micro broth dilution assay
[3] = test system: Mycobacterium tuberculosis; experiment: Antitubercular activity against Mycobacterium tuberculosis H37Rv assessed as bacterial growth inhibition measured after 7 days by broth microdilution assay; details: 168 h, time 7 day
[4] = test system: Mycobacterium tuberculosis; experiment: Antitubercular activity against Mycobacterium tuberculosis H37Rv ATCC 27294 assessed as bacterial growth inhibition measured after 48 hrs by broth dilution method
[5] = test system: Mycobacterium tuberculosis; experiment: Antitubercular activity against Mycobacterium tuberculosis H37Rv assessed as bacterial growth inhibition measured after 7 days by MABA method; details: 168 h, time 7 day
[6] = test system: Mycobacterium tuberculosis; experiment: Antitubercular activity against Mycobacterium tuberculosis H37Rv ATCC 25618 assessed as bacterial growth inhibition
[7] = test system: Mycobacterium tuberculosis; experiment: Antitubercular activity against Mycobacterium tuberculosis spec. 210 assessed as bacterial growth inhibition
[8] = test system: Mycobacterium tuberculosis; experiment: Antitubercular activity against Mycobacterium tuberculosis spec. 192 assessed as bacterial growth inhibition
[9] = test system: Mycobacterium tuberculosis; experiment: Antitubercular activity against Mycobacterium tuberculosis H37Rv assessed as bacterial growth inhibition
[10] = test system: Mycobacterium tuberculosis; experiment: Antitubercular activity against Mycobacterium tuberculosis H37Rv ATCC 27294 assessed as bacterial growth inhibition by agar dilution method
[11] = test system: Mycobacterium tuberculosis; experiment: Antitubercular activity against Mycobacterium tuberculosis H37Rv assessed as bacterial growth inhibition measured after 7 days by REMA method; details: 168 h, time 7 day
[12] = test system: Mycobacterium tuberculosis; experiment: Antitubercular activity against dormant stage of Mycobacterium tuberculosis H37Ra ATCC 25177 assessed as bacterial growth inhibition by XTT assay
[13] = test system: Mycobacterium tuberculosis; experiment: Antitubercular activity against active stage of Mycobacterium tuberculosis H37Ra ATCC 25177 assessed as bacterial growth inhibition by XTT assay
[14] = test system: Mycobacterium tuberculosis; experiment: Antitubercular activity against Mycobacterium tuberculosis H37Rv assessed as reduction in relative light units at 25 ug/ml incubated for 4 hrs followed by addition of D-luciferin by luciferase based luminometer analysis relative to control; parameters: scale not given: the % may be the effect or the level left; details: dose 25 µg/ml
[15] = test system: Mycobacterium tuberculosis; experiment: Antitubercular activity against Mycobacterium tuberculosis H37Rv assessed as reduction in relative light units at 5 ug/ml incubated for 4 hrs followed by addition of D-luciferin by luciferase based luminometer analysis relative to control; parameters: scale not given: the % may be the effect or the level left; details: dose 5 µg/ml
[16] = test system: Mycobacterium tuberculosis; experiment: Antitubercular activity against Mycobacterium tuberculosis H37Rv assessed as bacterial growth inhibition at 6.25 ug/ml measured after 5 to 8 days by radiometric analysis relative to control; parameters: scale not given: the % may be the effect or the level left; details: dose 6.25 µg/ml; time 5-8 day
[17] = test system: Mycobacterium tuberculosis; experiment: Antitubercular activity against Mycobacterium tuberculosis H37Rv ATCC 27294 assessed as bacterial growth inhibition

COc1c(N2CCNCC2)c(F)cc2c(=O)c(C(=O)O)cn(C3CC3)c12
MIC [1]: 1.56 µg/mL (≈ 4.32 µM)

CC(C)=CCC/C(C)=C/COc1ccc(/C=C/c2nnc3c4ccccc4cnn23)cc1
MIC [2]: 0.5 µg/mL

O=[N+]([O-])c1ncn(CCCCNS(=O)(=O)c2ccc(Cl)s2)n1
MIC [3]: 3.13 µM (≈ 1.15 µg/mL)

O=[N+]([O-])c1ncn(CCCCNS(=O)(=O)c2cc(Cl)c(Cl)s2)n1
MIC [3]: 1.56 µM (≈ 0.624 µg/mL)

C[C@]1(COc2ccc(-n3cc(COc4ccc(OC(F)(F)F)cc4)nn3)cc2)Cn2cc([N+](=O)[O-])nc2O1
MIC [4]: 0.23 µM (≈ 0.122 µg/mL)

CCCCCc1ccc(-c2cn(CC(O)COc3ccc4c(c3)OC3(CCCCC3)CC4=O)nn2)cc1 (stereo unspecified)
MIC [5]: 0.78 µg/mL (≈ 1.55 µM)

COc1ccc(-n2cc(Cn3nc(-c4ccccc4)c4c3CCN(C(=O)Nc3ccccc3)C4)nn2)cc1
MIC [6]: 24.7 µM (≈ 12.5 µg/mL)
MIC [7]: 24.7 µM (≈ 12.5 µg/mL)
MIC [8]: 24.7 µM (≈ 12.5 µg/mL)

Cc1ccc2c(c1)C=CC1(CCc3c(nnn3-c3ccccc3)C1)O2 (stereo unspecified)
MIC [5]: 1.56 µg/mL (≈ 4.74 µM)

COc1ccc(-n2nnc3c2CCC2(C=Cc4cc(Cl)ccc4O2)C3)cc1 (stereo unspecified)
MIC [5]: 1.56 µg/mL (≈ 4.11 µM)

COc1ccc(-n2nnc3c2CCC2(C=Cc4cc(C)ccc4O2)C3)cc1 (stereo unspecified)
MIC [5]: 1.56 µg/mL (≈ 4.34 µM)

O=C1Nc2ccccc2/C1=N\OCc1cn(Cc2ccc(Cl)cc2)nn1
MIC [9]: 1.56 µg/mL (≈ 4.24 µM)

CC1(C)OC2C3OC(C)(C)O[C@H]3C(Cn3cc(N4C(=O)CCCC4=O)nn3)O[C@@H]2O1 (stereo partly specified)
MIC [10]: 3.12 µg/mL (≈ 7.4 µM)

O=c1nc(NCc2cn(-c3ccc(Cl)cc3)nn2)sc2c(Cl)cc(C(F)(F)F)cc12
MIC [11]: 0.03 µg/mL (≈ 0.0635 µM)

O=c1nc(NCc2cn(-c3ccc(Cl)cc3)nn2)sc2c(Cl)cc(Cl)cc12
MIC [11]: 0.03 µg/mL (≈ 0.0684 µM)

Nc1ccc(-c2n[nH]c(=S)[nH]2)cc1
MIC [12]: 0.46 µg/mL (≈ 2.39 µM)
MIC [13]: > 30 µg/mL

O=c1nc(NCc2cn(-c3ccc(Cl)cc3)nn2)sc2c(Cl)cc(Br)cc12
MIC [11]: 0.03 µg/mL (≈ 0.0621 µM)

O=C1Nc2ccccc2/C1=N\OCc1cn(Cc2ccc(F)cc2)nn1
MIC [9]: 0.78 µg/mL (≈ 2.22 µM)

O=c1nc(NCc2cn(-c3ccc(Cl)cc3)nn2)sc2c(Cl)cc(F)cc12
MIC [11]: 0.03 µg/mL (≈ 0.071 µM)

COc1c(N2CCN(Cc3cn(CCN4C(=O)/C(=N\NC(N)=O)c5cc(Cl)ccc54)nn3)CC2)c(F)cc2c(=O)c(C(=O)O)cn(C3CC3)c12
MIC [1]: 0.39 µg/mL (≈ 0.552 µM)

CCCCCCc1cn(CCCC2C3CC4CC(C3)CC2C4)nn1.Cl (stereo unspecified)
MIC [9]: 6.2 µg/mL

c1ccc(-c2cn(Cc3ccc4ccccc4n3)nn2)cc1
Activity [14]: 80.79%
Activity [15]: 58.2%

Cc1nc2ccccc2n2c(-c3ccc([N+](=O)[O-])cc3)nnc12
Activity [16]: 2%

COc1ccc(-c2nnc3c(C)nc4ccccc4n23)cc1
Activity [16]: 2%

CCOC(=O)c1c(-n2cc(-c3ccc4cc(OC)ccc4c3)nn2)c2ccccc2n(C)c1=O
MIC [17]: 3.13 µg/mL (≈ 6.89 µM)

O=C(N/N=C/c1cc(Cl)cc(Cl)c1OCc1cn(-c2ccccc2Cl)nn1)c1ccncc1
MIC [9]: 1.56 µg/mL (≈ 3.11 µM)

Cc1cc(=O)oc2cc(OCc3cn(CCCCCCCCn4cc(COc5cc6oc(=O)cc(C)c6cc5Cl)nn4)nn3)c(Cl)cc12
MIC [11]: 1.56 µg/mL (≈ 2.25 µM)

O=C(O)c1cn(C2CC2)c2c(NO)c(N3CCN(Cc4cn(CCN5C(=O)/C(=N\O)c6ccccc65)nn4)CC3)c(F)cc2c1=O
MIC [1]: 0.39 µg/mL (≈ 0.617 µM)

O=C1Nc2ccccc2/C1=N\OCc1cn(Cc2cccc(C(F)(F)F)c2)nn1
MIC [9]: 3.12 µg/mL (≈ 7.79 µM)

Cc1nc2ccccc2n2c(-c3ccc(Cl)cc3)nnc12
Activity [16]: 2%

O=C(O)c1cn(C2CC2)c2cc(N3CCN(Cc4cn(CCN5C(=O)Cc6ccccc65)nn4)CC3)c(F)cc2c1=O
MIC [1]: 0.2 µg/mL (≈ 0.35 µM)

O=[N+]([O-])c1ccc(-c2n[nH]c(=S)[nH]2)cc1
MIC [12]: 0.64 µg/mL (≈ 2.88 µM)
MIC [13]: 9.05 µg/mL (≈ 40.7 µM)
